Data as given in PubChem BioAssay (NCI).
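Five concentrations, 48 hours, 96-well plates. Here, GI50 denotes the concentration required for 50% inhibition of growth. TGI is the concentration that stops growth completely.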

Assays:
Assay in all cases: NCI anticancer screen, dose series, 48 h
[1] = system: OVCAR-3 ovarian
[2] = system: HOP-62 NSCLC
[3] = system: SNB-75 CNS
[4] = system: SF-539 CNS
[5] = system: BT-549 breast
[6] = system: HT29 colon
[7] = system: HS 578T breast
[8] = system: EKVX NSCLC
[9] = system: MDA-MB-231 breast
[10] = system: HCC-2998 colon
[11] = system: DU-145 prostate
[12] = system: CCRF-CEM leukemia
[13] = system: K-562 leukemia
[14] = system: SK-MEL-2 melanoma
[15] = system: RXF 393 renal
[16] = system: HCT-116 colon
[17] = system: LOX IMVI melanoma
[18] = system: HL-60(TB) leukemia
[19] = system: A549 NSCLC
[20] = system: ACHN renal
[21] = system: HOP-92 NSCLC
[22] = system: RPMI-8226 leukemia
[23] = system: SN12C renal
[24] = system: A498 renal
[25] = system: SR leukemia
[26] = system: NCI-H522 lung
[27] = system: SK-MEL-5 melanoma
[28] = system: NCI/ADR-RES ovarian
[29] = system: NCI-H226 lung
[30] = system: COLO 205 colon
[31] = system: SK-MEL-28 melanoma
[32] = system: SF-295 CNS
[33] = system: NCI-H460 lung
[34] = system: KM12 colon
[35] = system: U251 CNS
[36] = system: UO-31 renal
[37] = system: HCT-15 colon
[38] = system: OVCAR-8 ovarian
[39] = system: CAKI-1 renal
[40] = system: UACC-62 melanoma
[41] = system: OVCAR-5 ovarian
[42] = system: NCI-H23 lung
[43] = system: UACC-257 melanoma
[44] = system: MOLT-4 leukemia
[45] = system: SNB-19 CNS
[46] = system: M14 melanoma
[47] = system: OVCAR-4 ovarian
[48] = system: MCF7 breast
[49] = system: SW-620 colon
[50] = system: IGROV1 ovarian
[51] = system: T-47D breast
[52] = system: SK-OV-3 ovarian
[53] = system: 786-0 renal
[54] = system: SF-268 CNS
[55] = system: PC-3 prostate
[56] = system: MDA-MB-435
[57] = system: TK-10 renal
[58] = system: MALME-3M melanoma

COc1cc(/C=C/C(=O)c2cc(OC)c(OC)c(OC)c2)ccc1Oc1nc2c(c(=O)n(C)c(=O)n2C)n1C
GI50 [1]: 2.37 µM | TGI [1]: 4.88 µM | GI50 [2]: 2.63 µM | TGI [2]: 5.89 µM | GI50 [3]: 1.77 µM | TGI [3]: 7.81 µM | GI50 [4]: 2.73 µM | TGI [4]: 7.74 µM | GI50 [5]: 1.56 µM | TGI [5]: 3.02 µM | GI50 [6]: 1.87 µM | TGI [6]: 3.9 µM | GI50 [7]: 7.93 µM | TGI [7]: > 100 µM | GI50 [8]: 26.5 µM | TGI [8]: > 100 µM | GI50 [9]: 2.55 µM | TGI [9]: 20.3 µM | GI50 [10]: 1.84 µM | TGI [10]: 3.35 µM | GI50 [11]: 3.92 µM | TGI [11]: 15.5 µM | GI50 [12]: 1.97 µM | TGI [12]: 6.48 µM | GI50 [13]: 2.29 µM | TGI [13]: 8.23 µM | GI50 [14]: 3.35 µM | TGI [14]: 7.78 µM | GI50 [15]: 2.03 µM | TGI [15]: 3.65 µM | GI50 [16]: 0.684 µM | TGI [16]: 2.06 µM | GI50 [17]: 1.14 µM | TGI [17]: 2.64 µM | GI50 [18]: 2.17 µM | TGI [18]: 5.32 µM | GI50 [19]: 2.2 µM | TGI [19]: 6.52 µM | GI50 [20]: 2.93 µM | TGI [20]: 8.06 µM | GI50 [21]: 2.09 µM | TGI [21]: 5.84 µM | GI50 [22]: 1.2 µM | TGI [22]: 4.91 µM | GI50 [23]: 2.24 µM | TGI [23]: 7.79 µM | GI50 [24]: 2.51 µM | TGI [24]: 10.2 µM | GI50 [25]: 1.21 µM | TGI [25]: 4.89 µM | GI50 [26]: 1.43 µM | TGI [26]: 2.81 µM | GI50 [27]: 1.75 µM | TGI [27]: 3.33 µM | GI50 [28]: 2.96 µM | TGI [28]: > 100 µM | GI50 [29]: 2.98 µM | TGI [29]: 8.43 µM | GI50 [30]: 1.91 µM | TGI [30]: 3.62 µM | GI50 [31]: 2.57 µM | TGI [31]: 7.03 µM | GI50 [32]: 2.65 µM | TGI [32]: 13 µM | GI50 [33]: 2.24 µM | TGI [33]: 6.37 µM | GI50 [34]: 1.62 µM | TGI [34]: 3.16 µM | GI50 [35]: 1.28 µM | TGI [35]: 2.6 µM | GI50 [36]: 1.6 µM | TGI [36]: 3.1 µM | GI50 [37]: 2.56 µM | TGI [37]: > 100 µM | GI50 [38]: 1.73 µM | TGI [38]: 5.2 µM | GI50 [39]: 2.22 µM | TGI [39]: 7.92 µM | GI50 [40]: 1.81 µM | TGI [40]: 3.61 µM | GI50 [41]: 2.9 µM | TGI [41]: 7.41 µM | GI50 [42]: 1.85 µM | TGI [42]: 4.27 µM | GI50 [43]: 2.05 µM | TGI [43]: 4.63 µM | GI50 [44]: 2.29 µM | TGI [44]: 6.34 µM | GI50 [45]: 2.71 µM | TGI [45]: 13.5 µM | GI50 [46]: 1.87 µM | TGI [46]: 4.55 µM | GI50 [47]: 2.49 µM | TGI [47]: > 100 µM | GI50 [48]: 2.2 µM | TGI [48]: 27.6 µM | GI50 [49]: 1.6 µM | TGI [49]: 3.46 µM | GI50 [50]: 2.5 µM | TGI [50]: 5.35 µM | GI50 [51]: 4.39 µM | TGI [51]: 65.4 µM | GI50 [52]: 3.73 µM | TGI [52]: 35.5 µM | GI50 [53]: 1.63 µM | TGI [53]: 3.26 µM | GI50 [54]: 3.29 µM | TGI [54]: 10.2 µM

CCN1CCN(c2cc(C)nc(N(CCCNc3ccnc4cc(Cl)ccc34)Cc3cccs3)n2)CC1
GI50 [1]: 1.83 µM | TGI [1]: 6.03 µM | GI50 [2]: 2.79 µM | TGI [2]: 15.2 µM | GI50 [3]: 1.5 µM | TGI [3]: 3.2 µM | GI50 [4]: 1.76 µM | TGI [4]: 3.33 µM | GI50 [5]: 1.93 µM | TGI [5]: 5.04 µM | GI50 [6]: 1.31 µM | TGI [6]: 4.33 µM | GI50 [7]: 2.02 µM | TGI [7]: 5.02 µM | GI50 [8]: 3.88 µM | TGI [8]: 16.6 µM | GI50 [9]: 1.4 µM | TGI [9]: 3.56 µM | GI50 [10]: 1.98 µM | TGI [10]: 4.58 µM | GI50 [12]: 2.7 µM | TGI [12]: 12.5 µM | GI50 [13]: 0.525 µM | TGI [13]: 2.29 µM | GI50 [55]: 3.11 µM | TGI [55]: 15.9 µM | GI50 [14]: 1.98 µM | TGI [14]: 3.92 µM | GI50 [15]: 1.45 µM | TGI [15]: 3.17 µM | GI50 [16]: 1.32 µM | TGI [16]: 10.4 µM | GI50 [17]: 1.84 µM | TGI [17]: 3.59 µM | GI50 [18]: 2.14 µM | TGI [18]: 4.15 µM | GI50 [19]: 3.22 µM | TGI [19]: 14.4 µM | GI50 [20]: 3.38 µM | TGI [20]: 9.22 µM | GI50 [21]: 1.55 µM | TGI [21]: 3.79 µM | GI50 [22]: 1.57 µM | TGI [22]: 4.82 µM | GI50 [23]: 3.35 µM | TGI [23]: 14 µM | GI50 [24]: 2.41 µM | TGI [24]: 7.13 µM | GI50 [25]: 1.29 µM | TGI [25]: 3.23 µM | GI50 [56]: 1.59 µM | TGI [56]: 2.95 µM | GI50 [26]: 1.81 µM | TGI [26]: 3.81 µM | GI50 [27]: 1.72 µM | TGI [27]: 3.11 µM | GI50 [28]: 2.96 µM | TGI [28]: 16.8 µM | GI50 [29]: 8.12 µM | TGI [29]: 31.5 µM | GI50 [30]: 1.57 µM | TGI [30]: 3.32 µM | GI50 [31]: 1.82 µM | TGI [31]: 3.39 µM | GI50 [32]: 1.84 µM | TGI [32]: 3.73 µM | GI50 [33]: 2.47 µM | TGI [33]: 7.84 µM | GI50 [57]: 1.82 µM | TGI [57]: 4.09 µM | GI50 [34]: 2.62 µM | TGI [34]: 12.7 µM | GI50 [35]: 2.22 µM | TGI [35]: 7.05 µM | GI50 [36]: 1.33 µM | TGI [36]: 2.88 µM | GI50 [37]: 1.33 µM | TGI [37]: 4.51 µM | GI50 [38]: 3.06 µM | TGI [38]: 10.9 µM | GI50 [40]: 1.93 µM | TGI [40]: 3.56 µM | GI50 [41]: 3.97 µM | TGI [41]: 15.3 µM | GI50 [42]: 3.21 µM | TGI [42]: 14.3 µM | GI50 [43]: 2.1 µM | TGI [43]: 3.94 µM | GI50 [44]: 1.62 µM | TGI [44]: 6.12 µM | GI50 [45]: 3.88 µM | TGI [45]: 13.9 µM | GI50 [58]: 2.01 µM | TGI [58]: 3.7 µM | GI50 [46]: 1.8 µM | TGI [46]: 3.51 µM | GI50 [47]: 2.11 µM | TGI [47]: 12.7 µM | GI50 [48]: 2.22 µM | TGI [48]: 10.3 µM | GI50 [49]: 1.59 µM | TGI [49]: 3.86 µM | GI50 [50]: 2.11 µM | TGI [50]: 6.58 µM | GI50 [51]: 2.29 µM | TGI [51]: 6.89 µM | GI50 [52]: 3.29 µM | TGI [52]: 10.5 µM | GI50 [53]: 1.56 µM | TGI [53]: 3.58 µM | GI50 [54]: 2.03 µM | TGI [54]: 6.62 µM
